Measured values taken from patent publication US20130045475A1, “2-Nitrobenzyl-Modified Ribonucleotides” (ALERE SAN DIEGO, INC., priority 2004, published 2013).

Columns and labels:
T7 RNA polymerase [1] = target: T1, T7 RNA polymerase (Escherichia phage T7, UniProt P00573)
Method: The reaction was started by the addition of 20 μl of 10 mM 2′-(2-Nitrobenzyl)-ATP and incubated for 2 hours at 37° C. Subsequently the reaction was split into 4 samples and subjected to deprotection: two samples were exposed to UV irradiation as described above, two untreated samples were incubated for the same period of time at ambient temperature. Deprotection was followed by addition of 1 volume of either extension mix containing 250 μM rNTPs in transcription buffer, or addition of transcription buffer only. Samples were then incubated for another 1 hour at 37° C.
Processing, separation and detection of products was done as described above.

T7 RNA polymerase [2] = target: T1, T7 RNA polymerase; settings: elongation mode complexes on duplex DNA substrates
T7 RNA polymerase [3] = target: T1, T7 RNA polymerase; assay: Primer extension reactions with RNA/DNA scaffold and T7 RNA polymerase; format: biochemical; design: purchased Fermentas; settings: for extension of the RNA primer of the scaffold: sole nucleotide offered, template encodes rATP then rGTP, FIG. 2B
Method: The nucleic acid scaffolds were formed by incubating 1 nmol RNA-1 (5′-biotin-AACUGCGGCGAU-3′ (SEQ ID NO:1)) and 1 nmol DNA-1 (5′-[…]-3′ (SEQ ID NO:2)) in 100 μl transcription buffer (200 mM Tris-HCl (pH 7.9 at 25° C.), 30 mM MgCl2, 50 mM DTT, 50 mM NaCl, 10 mM spermidine) for 10 minutes at 70° C. Annealing occurred by slowly lowering the temperature to 25° C. The concentration of hybrid was assumed to be 10 μM.
For the primer extension reactions 2 pmoles of scaffold were mixed with 10 units of T7 RNA polymerase (Fermentas) in 9 μl transcription buffer to allow the transcription complex to form. Reactions were started by the addition of 1 μl of 1 mM nucleotide solution and incubated for 20 minutes at 37° C. Reactions were stopped by addition of 2 μl 500 mM EDTA and cooled on ice. UV irradiation was done for 10 minutes on a UV lamp.
Samples were precipitated, dissolved in formamide loading buffer and resolved on a denaturing 16% polyacrylamide gel (8M urea). Gels were electroblotted onto nylon-membrane (Osmonics, USA) in blotting buffer (0.5×TBE). Blots were incubated in blocking buffer (1×TBSTw/1% blocking reagent (Roche)) for 1 hour at room temperature to avoid non-specific noise, incubated with 0.5 μg/ml streptavidin-HRP (Sigma) in blocking buffer for 1 hour and washed extensively in Tris buffered saline containing 0.1% Tween-20. Detection was performed using a chemiluminescent substrate according to the instructions of the manufacturer (Pierce).

T1 sequence (P00573 whole entry): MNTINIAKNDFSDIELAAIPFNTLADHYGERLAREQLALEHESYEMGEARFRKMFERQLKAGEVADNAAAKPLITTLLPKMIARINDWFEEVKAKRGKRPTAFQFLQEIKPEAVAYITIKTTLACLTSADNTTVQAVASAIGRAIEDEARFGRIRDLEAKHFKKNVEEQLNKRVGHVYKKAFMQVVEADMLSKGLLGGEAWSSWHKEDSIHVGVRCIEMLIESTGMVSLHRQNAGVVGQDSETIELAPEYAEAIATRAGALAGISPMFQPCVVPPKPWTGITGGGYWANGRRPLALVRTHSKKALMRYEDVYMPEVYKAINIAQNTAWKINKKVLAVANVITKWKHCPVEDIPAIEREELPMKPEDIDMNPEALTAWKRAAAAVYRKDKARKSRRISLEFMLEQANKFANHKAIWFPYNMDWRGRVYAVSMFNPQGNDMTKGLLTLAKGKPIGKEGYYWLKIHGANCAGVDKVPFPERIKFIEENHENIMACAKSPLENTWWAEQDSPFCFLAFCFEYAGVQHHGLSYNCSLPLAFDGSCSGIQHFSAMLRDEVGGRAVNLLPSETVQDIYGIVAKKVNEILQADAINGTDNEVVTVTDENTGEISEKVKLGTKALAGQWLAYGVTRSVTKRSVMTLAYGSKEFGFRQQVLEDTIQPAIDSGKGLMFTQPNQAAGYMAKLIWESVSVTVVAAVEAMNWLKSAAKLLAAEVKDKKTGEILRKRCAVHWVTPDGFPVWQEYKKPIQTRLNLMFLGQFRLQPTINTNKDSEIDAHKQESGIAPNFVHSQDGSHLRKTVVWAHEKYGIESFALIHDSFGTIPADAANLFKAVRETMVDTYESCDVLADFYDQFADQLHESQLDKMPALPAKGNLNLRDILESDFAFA

Nc1ncnc2c1ncn2[C@@H]1O[C@H](COP(=O)(O)OP(=O)(O)OP(=O)(O)O)[C@@H](O)[C@H]1OCc1ccccc1[N+](=O)[O-] [2′-(2-Nitrobenzyl)-ATP]
reversal of termination on deprotection (T7 RNA polymerase [1]; UV irradiation 10 minutes, then 250 μM rNTPs extension mix, 1 hour at 37° C., FIG. 3 lane 4): Elongation of the transcript can resume upon removal of the protecting 2-Nitrobenzyl group by UV irradiation | termination of transcription (T7 RNA polymerase [1]; scaffold + T7 RNAP + 2′-(2-Nitrobenzyl)-ATP 2 hours at 37° C., no UV, then rNTPs, FIG. 3 lane 3): acts as a bona fide terminator of transcription | incorporation into a growing RNA chain (T7 RNA polymerase [2]): we have not observed this activity | incorporation of the nucleotide analog into a growing RNA chain (T7 RNA polymerase [3]; RNA/DNA scaffold, 10 units T7 RNA polymerase, 1 μl of 1 mM nucleotide solution, 20 minutes at 37° C., gel mobility before and after UV): incorporation into the nascent RNA chain by T7 RNAP

Nc1ncnc2c1ncn2[C@@H]1O[C@H](COP(=O)(O)OP(=O)(O)OP(=O)(O)O)[C@@H](O)[C@H]1O [rATP, adenosine 5′-triphosphate]
extension of the RNA primer of the scaffold (T7 RNA polymerase [3]): extended by one or two bases

Nc1ccn([C@@H]2O[C@H](COP(=O)(O)OP(=O)(O)OP(=O)(O)O)[C@@H](O)[C@H]2O)c(=O)n1 [rCTP, cytidine 5′-triphosphate]
extension of the RNA primer of the scaffold (T7 RNA polymerase [3]): extension is limited to one base only
